# Values of other authors as cited in US20230301938A1 (priority 2022, published 2023).
# Where two headings read alike, the source gives them in different places.
# Experiments:
# [1] = tested on: lipopolysaccharide-activated macrophages
# myocardial ischemia = details: 10 mg/kg intravenously then 10 mg/kg/h
# [2] = tested on: Nrf2 (-/-) primary peritoneal macrophages
# [3] = tested on: LPS-challenged macrophages; details: pre-incubated 6 h, 0 to 50 µM, then LPS 24 h
# [4] = tested on: Nrf2 (+/+) primary peritoneal macrophages
# [5] = tested on: lipopolysaccharide-induced inflammatory reactions
# sepsis = details: for concentration of IL-1α: controls 1187.0 ± 278.64
# [6] = tested on: endothelium of atherosclerotic plaque; details: apoE(-/-) mice, injection
# [7] = tested on: human umbilical vein VECs (HUVECs)
# [8] = 50 and 100 mg/kg/day, vs MD group
compound,measurement,setting,value
O=C(O[C@@H]1Cc2c(O)cc(O)cc2O[C@@H]1c1cc(O)c(O)c(O)c1)c1cc(O)c(O)c(O)c1 [EGCG],NO production,[1]; cotreated with LPS,Inhibition
same,activation of nuclear factor-kappaB,[1]; electrophoretic mobility shift assay,blocked
same,myeloperoxidase activity,myocardial ischemia,reduced
same,myocardial damage,myocardial ischemia,reduced
same,plasma IL-6 levels,myocardial ischemia,decreased
same,plasma creatine phosphokinase levels,myocardial ischemia,decreased
same,disease activity index (DAI),ulcerative colitis (UC); [8],decreased
same,spleen index (SI),ulcerative colitis (UC); [8],decreased
same,HIF-1α protein expression in the colon,"ulcerative colitis (UC); mouse, in vivo",decreasing
same,STAT3 protein expression in the colon,"ulcerative colitis (UC); mouse, in vivo",decreasing
same,plasma levels of IL-10,"ulcerative colitis (UC); mouse, in vivo",increasing
same,plasma levels of TGF-β1,"ulcerative colitis (UC); mouse, in vivo",increasing
same,release of IL-6,ulcerative colitis (UC); plasma,reduce
same,release of IL-17,ulcerative colitis (UC); plasma,reduce
same,TNF-α-induced nuclear factor-κB (NF-κB) activity,macrophage foam cells,inhibition
same,TNF-α-induced downregulation of ABCA1 and decrease in cholesterol efflux to apoA1,macrophage foam cells; pretreatment,attenuated
"C[S+]([O-])CCCCN=C=S (stereo not drawn) [sulforaphane, 1-isothiocyanato-4-(methylsulfinyl)-butane]",anti-inflammatory effect,[2],attenuated
same,expression of NO and cytokines,[3],able to prevent
same,HO-1 expression,[4]; LPS-stimulated,significantly augmented
same,"LPS-stimulated mRNA expression, protein expression and production of TNF-alpha, IL-1beta, COX-2 and iNOS",[4]; pretreatment,potently inhibited
same,inducible nitric oxide synthase (iNOS) activity,LPS-induced ARDS; 50 mg/kg,significantly inhibited
same,nuclear factor-κB protein expression,LPS-induced ARDS; 50 mg/kg,significantly decreased
same,prostaglandin E2 (PGE2) production,LPS-induced ARDS; 50 mg/kg,significantly inhibited
same,serum levels of interleukin-6 (IL-6),"LPS-induced ARDS; 50 mg/kg, ELISA",significantly decreased
same,serum levels of tumor necrosis factor-α (TNF-α),"LPS-induced ARDS; 50 mg/kg, ELISA",significantly decreased
same,lactate dehydrogenase (LDH) activity,"LPS-induced ARDS; 50 mg/kg, LPS 5 mg/kg",significantly decreased
same,wet-to-dry ratio of the lungs,"LPS-induced ARDS; 50 mg/kg, LPS 5 mg/kg",significantly decreased
same,Nrf2/antioxidant response element (ARE) pathway,LPS-induced ARDS; pre-treatment,activated
same,cyclooxygenase-2 (COX-2) protein expression,LPS-induced ARDS; western blot,significantly inhibited
same,matrix metalloproteinase-9 (MMP-9) protein expression,LPS-induced ARDS; western blot,significantly inhibited
CC1=CC(=O)C(C(C)C)=CC1=O [thymoquinone],lipopolysaccharide-induced inflammatory reactions,[5],suppressed effectively
same,concentration of nitric oxide,[5]; marker of inflammation,reduced significantly
same,concentration of IL-1α,sepsis; 0.75 mg/kg dose,310.8 ± 70.93 pg/mL
same,IL-10 levels,"sepsis; 0.75 mg/kg, controls 5505.2 ± 333.96",2885.0 ± 553.98 pg/mL
same,concentration of IL-1α,sepsis; 1 mg/kg group,428.3 ± 71.32 pg/mL
same,levels of IL-2,sepsis; P=0.0851,relatively lower levels
same,levels of TNF-α,sepsis; P=0.1817,relatively lower levels
same,reduction of mortality,"sepsis; mice, sepsis",80-90%
same,renal and hepatic biomarker profiles,"sepsis; mice, sepsis",improved
"trans-3,5-dimethoxy-4-hydroxystilbene [pterostilbene]",number of TUNEL-positive cells in the endothelium of atherosclerotic plaque,[6],strongly decreased
same,"oxLDL-induced cell shrinkage, chromatin condensation, nuclear fragmentation, and cell apoptosis","[7]; HUVECs, oxLDL 200 µg/ml",protected against such injuries
same,expression of lectin-like oxLDL receptor-1 (LOX-1),[7]; in vitro and in vivo,inhibited
